This is an account of results in patent US12209143B2, “Versatile peptide and protein macrocyclization and multimerization with diels-alder cycloadditions” (The University of Chicago, priority 2019, dated 2025).

Like-named read-outs stand apart in the source and are kept apart here.

One series addresses T1, trypsin (Sus scrofa, UniProt P00761).
T1 construct: purchased Thermo Pierce
Description: In vitro trypsin resistance assay. Format: in vitro ADME. The following applies: 10 μg/mL trypsin, 37° C. The protocol:
(§1) DAC protease stability assays. DAC peptide protease degradation kinetics were determined with Thermo Pierce™ MS-Grade Trypsin or Chymotrypsin Protease in PBS or TBS with 5 mM DTT and 2 mM CaCl2. Protease (1 eq) was added to buffer for a final assay concentration of 10 μg/mL trypsin or 0.5 μg/mL chymotrypsin. Each respective reaction mixture was then added to either 1 wt and 1a (2000 eq) or 4 wt and 4a (10,000 eq). Samples were then incubated at 37° C., 1,000 rpm. 5 min, 10 min, 30 min, 2 hr, and 4 hr time points were quenched in an equal volume of 2% TFA/H2O on ice. After 5 min, samples were centrifuged for 2 min at 17,000 rcf to precipitate quenched trypsin. Supernatant solutions were then analyzed and intact peptide quantified by LC-MS or Q-TOF.

In a further series the target is T2, ERα (Homo sapiens, UniProt P03372).
T2 construct: Wildtype and Y537S 6×His-TEV-ERα (residues 300-550) in pET21a(+) was expressed in E. coli BL21(DE3); 6×His-TEV (N, cleaved yes); made in house; host or cells: E. coli BL21(DE3)
T2 sequence (P03372 300-550): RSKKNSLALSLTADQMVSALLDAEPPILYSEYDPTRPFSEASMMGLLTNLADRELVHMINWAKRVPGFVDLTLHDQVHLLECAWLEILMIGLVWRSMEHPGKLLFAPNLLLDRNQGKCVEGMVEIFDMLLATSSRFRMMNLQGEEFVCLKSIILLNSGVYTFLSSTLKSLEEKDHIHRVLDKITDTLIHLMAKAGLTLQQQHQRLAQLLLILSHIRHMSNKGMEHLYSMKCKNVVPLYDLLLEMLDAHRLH
Description: Competitive fluorescence polarization (FP) binding assay of DAC-SRC2 peptides. The protocol: Competitive fluorescence polarization (FP) assay. […] Plates were incubated at 4° C. for 1 hr, imaged using standard FP assay settings at 30° C., and data analyzed as previously described.
A general note: In fluorescence polarisation assays a small probe gives low polarisation when free and higher when bound to something large.

For the next series, the target named is T3, chymotrypsin (Bos taurus, UniProt P00766).
T3 construct: purchased Thermo Pierce
Description: In vitro chymotrypsin resistance assay. Format: in vitro ADME. Particulars: 0.5 μg/mL chymotrypsin, 37° C. The protocol:
as §1

T1 sequence (P00761 9-231): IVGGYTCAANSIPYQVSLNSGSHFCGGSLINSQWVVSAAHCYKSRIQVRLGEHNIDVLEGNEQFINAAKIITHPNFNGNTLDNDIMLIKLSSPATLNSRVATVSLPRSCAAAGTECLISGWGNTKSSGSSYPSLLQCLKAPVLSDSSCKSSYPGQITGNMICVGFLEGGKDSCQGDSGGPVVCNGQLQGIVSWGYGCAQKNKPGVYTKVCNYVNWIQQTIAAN

Consider `CC(=O)N[C@H]1CSCC2C=CC(C)C3C(=O)N(CC(=O)NCCCC[C@@H](C(N)=O)NC(=O)[C@H](CC(=O)O)NC(=O)CNC(=O)[C@H](CCCNC(=N)N)NC1=O)C(=O)C23` (some centres unmarked) [1a, CHexRGDKMal], for which the degradation by trypsin entry on trypsin was “extended half-life”.
For the molecule `CC[C@H](C)[C@H](NC(=O)[C@H](CCCCN)NC(=O)[C@H](Cc1c[nH]cn1)NC(C)=O)C(=O)N[C@@H](CC(C)C)C(=O)N[C@@H](Cc1c[nH]cn1)C(=O)N[C@H]1CCCCNC(=O)CN2C(=O)C3C4C=CC(C[C@@H](C(=O)N[C@@H](CO)C(N)=O)NC(=O)[C@H](CCC(N)=O)NC(=O)[C@H](CC(C)C)NC(=O)[C@H](CC(C)C)NC1=O)(O4)C3C2=O` (some centres unmarked) [7a], the Ki (commonly the dissociation constant of the complex between target and ligand, obtained from inhibition or displacement) on ERα (calculated from competitive FP assay, ERα, value (± s.e.m.)) is 210 nM. Further, the IC50 (commonly the concentration that inhibits the measured activity by half) at ERα (competing a fluorescein-linked SRC2 peptide off of ERα, read-out: IC50 (approximate)) is ~500 nM; on ERα (competitive FP, wildtype ERα, fluorescein-labeled SRC peptide tracer, value (± s.e.m.), read-out: IC50), 480 nM.
With Ac-CAVPAVYK-NH2 [4 wt], the degradation by chymotrypsin entry on chymotrypsin is recorded as “degraded more rapidly than 4a”.
